compound: CCn1c(-c2nonc2N)nc2c(C#CC(C)(C)O)ncc(OC[C@H]3CCCNC3)c21 + COc1cc2c(Oc3ccc(NC(=O)C4(C(=O)Nc5ccc(F)cc5)CC4)cc3F)ccnc2cc1OCCCN1CCOCC1 [Foretinib] (partner 0.25 µM); experiment: relative viability (nuclei count vs DMSO), 5 days (fraction); higher = more cells survive; conditions: first compound 1 µM
Procedure, shortened: (§1)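 Nuclei were stained with Hoechst during a one-step fixation (final 0.05% Triton X-100, 1% formaldehyde, 1 ug/ml Hoechst) carried out 5 days after dosing, then counted on 4× images. The cells, lung cancer lines in 1536-well plates, had been dosed by pin tool the day after seeding with one drug alone or a fixed anchor-drug dose plus five library-drug doses (not always all listed) in √10 steps. Relative viability is the nuclei count in treated wells divided by that in vehicle wells, and each value is the median of duplicate plates.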

Compared with NCI-H1793, PC-14 is higher in relative viability: 0.554 for the first, 1 for the second.

Going from EKVX to LC-2-ad, the relative viability rises from 0.75 to 1.01.

Compared with NCI-H1944, NCI-H1975 is higher in relative viability: 0.876 for the first, 0.885 for the second.

Going from RERF-LC-KJ to PC-3 [JPC-3], the relative viability rises from 0.973 to 1.08.

compound: CCn1c(-c2nonc2N)nc2c(C#CC(C)(C)O)ncc(OC[C@H]3CCCNC3)c21 + CC1(C)CCC(c2ccc(Cl)cc2)=C(CN2CCN(c3ccc(C(=O)NS(=O)(=O)c4ccc(N[C@H](CCN5CCOCC5)CSc5ccccc5)c(S(=O)(=O)C(F)(F)F)c4)cc3)CC2)C1 [Navitoclax] (partner 0.5 µM); experiment: as above; conditions: first compound 0.01 µM
Procedure, shortened: as §1

Going from EPLC-272H to NCI-H2228, the relative viability falls from 1.24 to 0.728.

First: NCI-H1355
Second: NCI-H3122
The relative viability of the first is lower: 1 for the first, 1.05 for the second.

First: NCI-H1437
Second: NCI-H1755
The relative viability of the first is higher: 1.05 for the first, 0.985 for the second.

First: NCI-H2023
Second: HCC-15
The relative viability of the first is higher: 1.02 for the first, 0.72 for the second.

Compared with NCI-H1793, PC-14 is higher in relative viability: 0.381 for the first, 1.04 for the second.

Going from EKVX to LC-2-ad, the relative viability falls from 0.882 to 0.56.

Compared with NCI-H1944, NCI-H1975 is lower in relative viability: 1.11 for the first, 1.03 for the second.

First: RERF-LC-KJ
Second: PC-3 [JPC-3]
The relative viability of the first is higher: 0.944 for the first, 0.806 for the second.

same assay, conditions: first compound 0.03162 µM

Going from EPLC-272H to NCI-H2228, the relative viability falls from 1.21 to 0.673.

Compared with NCI-H1355, NCI-H3122 is higher in relative viability: 0.819 for the first, 1 for the second.

Going from NCI-H1437 to NCI-H1755, the relative viability falls from 1.08 to 0.984.

First: NCI-H2023
Second: HCC-15
The relative viability of the first is higher: 0.98 for the first, 0.752 for the second.

First: NCI-H1793
Second: PC-14
The relative viability of the first is lower: 0.462 for the first, 1.02 for the second.

First: EKVX
Second: LC-2-ad
The relative viability of the first is higher: 0.858 for the first, 0.417 for the second.

First: NCI-H1944
Second: NCI-H1975
The relative viability of the first is lower: 0.954 for the first, 1.3 for the second.

Going from RERF-LC-KJ to PC-3 [JPC-3], the relative viability falls from 1.04 to 0.788.

same assay, conditions: first compound 0.1 µM

Compared with EPLC-272H, NCI-H2228 is lower in relative viability: 0.932 for the first, 0.791 for the second.

Compared with NCI-H1355, NCI-H3122 is higher in relative viability: 1.02 for the first, 1.06 for the second.

First: NCI-H1437
Second: NCI-H1755
The relative viability of the first is higher: 1.11 for the first, 0.981 for the second.

Compared with NCI-H2023, HCC-15 is lower in relative viability: 0.972 for the first, 0.721 for the second.

Going from NCI-H1793 to PC-14, the relative viability rises from 0.465 to 0.976.

Going from EKVX to LC-2-ad, the relative viability falls from 0.927 to 0.579.

Going from NCI-H1944 to NCI-H1975, the relative viability falls from 1.13 to 1.12.

Going from RERF-LC-KJ to PC-3 [JPC-3], the relative viability rises from 0.773 to 0.859.

same assay, conditions: first compound 0.3162 µM

First: EPLC-272H
Second: NCI-H2228
The relative viability of the first is higher: 1.16 for the first, 0.634 for the second.

Compared with NCI-H1355, NCI-H3122 is higher in relative viability: 0.882 for the first, 1.01 for the second.

First: NCI-H1437
Second: NCI-H1755
The relative viability of the first is higher: 1.09 for the first, 0.958 for the second.

First: NCI-H2023
Second: HCC-15
The relative viability of the first is higher: 0.932 for the first, 0.634 for the second.

First: NCI-H1793
Second: PC-14
The relative viability of the first is lower: 0.375 for the first, 0.875 for the second.

First: EKVX
Second: LC-2-ad
The relative viability of the first is higher: 0.908 for the first, 0.419 for the second.

Going from NCI-H1944 to NCI-H1975, the relative viability rises from 1.05 to 1.14.

Compared with RERF-LC-KJ, PC-3 [JPC-3] is lower in relative viability: 1.17 for the first, 0.837 for the second.

same assay, conditions: first compound 1 µM

Compared with EPLC-272H, NCI-H2228 is lower in relative viability: 0.906 for the first, 0.787 for the second.

Compared with NCI-H1355, NCI-H3122 is higher in relative viability: 0.969 for the first, 1.04 for the second.

First: NCI-H1437
Second: NCI-H1755
The relative viability of the first is higher: 1.13 for the first, 1.01 for the second.

Going from NCI-H2023 to HCC-15, the relative viability falls from 1.01 to 0.653.

First: NCI-H1793
Second: PC-14
The relative viability of the first is lower: 0.41 for the first, 1.08 for the second.

First: EKVX
Second: LC-2-ad
The relative viability of the first is higher: 0.853 for the first, 0.487 for the second.

First: NCI-H1944
Second: NCI-H1975
The relative viability of the first is higher: 1.08 for the first, 1.03 for the second.

First: RERF-LC-KJ
Second: PC-3 [JPC-3]
The relative viability of the first is lower: 0.791 for the first, 0.809 for the second.

compound: CCOC1=CC=CC=C1N=NC2=C(NN(C2=O)C3=NC(=CS3)C4=CC=CC=C4)C [BAM7] + CC1(C)CCC(c2ccc(Cl)cc2)=C(CN2CCN(c3ccc(C(=O)NS(=O)(=O)c4ccc(N[C@H](CCN5CCOCC5)CSc5ccccc5)c(S(=O)(=O)C(F)(F)F)c4)cc3)CC2)C1 [Navitoclax] (partner 0.5 µM); experiment: as above; conditions: first compound 0.5 µM
Procedure, shortened: as §1

Going from EPLC-272H to NCI-H2228, the relative viability falls from 1.32 to 0.985.

Compared with NCI-H1355, NCI-H3122 is higher in relative viability: 0.856 for the first, 1.07 for the second.

Compared with NCI-H1437, NCI-H1755 is lower in relative viability: 1.18 for the first, 1.04 for the second.

Going from NCI-H2023 to HCC-15, the relative viability falls from 1.04 to 0.751.

First: NCI-H1793
Second: PC-14
The relative viability of the first is lower: 0.401 for the first, 1.05 for the second.

Compared with EKVX, LC-2-ad is lower in relative viability: 1.13 for the first, 0.548 for the second.

Going from NCI-H1944 to NCI-H1975, the relative viability falls from 1.07 to 0.9.

Compared with RERF-LC-KJ, PC-3 [JPC-3] is lower in relative viability: 0.908 for the first, 0.688 for the second.

same assay, conditions: first compound 5 µM

Going from EPLC-272H to NCI-H2228, the relative viability rises from 1.21 to 1.4.

Compared with NCI-H1355, NCI-H3122 is higher in relative viability: 0.94 for the first, 0.984 for the second.

Compared with NCI-H1437, NCI-H1755 is lower in relative viability: 1.07 for the first, 1.04 for the second.

First: NCI-H2023
Second: HCC-15
The relative viability of the first is higher: 0.888 for the first, 0.768 for the second.

First: NCI-H1793
Second: PC-14
The relative viability of the first is lower: 0.565 for the first, 1.09 for the second.

Compared with EKVX, LC-2-ad is lower in relative viability: 0.982 for the first, 0.532 for the second.

First: NCI-H1944
Second: NCI-H1975
The relative viability of the first is higher: 1.14 for the first, 1.1 for the second.

Going from RERF-LC-KJ to PC-3 [JPC-3], the relative viability rises from 0.805 to 0.815.

same assay, conditions: first compound 15.81 µM

First: EPLC-272H
Second: NCI-H2228
The relative viability of the first is higher: 1.15 for the first, 0.818 for the second.

Going from NCI-H1355 to NCI-H3122, the relative viability rises from 0.773 to 1.06.

First: NCI-H1437
Second: NCI-H1755
The relative viability of the first is higher: 0.964 for the first, 0.886 for the second.

Going from NCI-H2023 to HCC-15, the relative viability falls from 0.886 to 0.683.

Compared with NCI-H1793, PC-14 is higher in relative viability: 0.437 for the first, 1 for the second.

Compared with EKVX, LC-2-ad is lower in relative viability: 0.71 for the first, 0.422 for the second.

Compared with NCI-H1944, RERF-LC-KJ is higher in relative viability: 0.875 for the first, 0.907 for the second.

Cell Line PC-3 [JPC-3] has a relative viability of 0.755.

same assay, conditions: first compound 50 µM

First: EPLC-272H
Second: NCI-H2228
The relative viability of the first is lower: 1.17 for the first, 1.27 for the second.

Compared with NCI-H1355, NCI-H3122 is higher in relative viability: 0.957 for the first, 1.07 for the second.

First: NCI-H1437
Second: NCI-H1755
The relative viability of the first is higher: 1.03 for the first, 1.01 for the second.

Going from NCI-H2023 to HCC-15, the relative viability falls from 0.982 to 0.707.

First: NCI-H1793
Second: PC-14
The relative viability of the first is lower: 0.411 for the first, 0.938 for the second.

Compared with EKVX, LC-2-ad is lower in relative viability: 1.01 for the first, 0.464 for the second.

Going from NCI-H1944 to NCI-H1975, the relative viability falls from 0.882 to 0.862.

First: RERF-LC-KJ
Second: PC-3 [JPC-3]
The relative viability of the first is higher: 0.847 for the first, 0.626 for the second.

— the supplement of paper PMC10307832
